Patent publication US20220280508A1 (priority 2019, published 2022)
“Also recorded” adds a separate entry of the source. Marks after values point to notes of the source that are not given here.

What was measured:
[1] = system: Macrophage RAW264.7
[2] = system: TNF-α, IL-1α, IL-6
[3] = system: iNOS; format: cell-based, Mouse
[4] = system: influenza; settings: human, in vivo
[5] = system: PR8 influenza virus; settings: mouse, in vivo
[6] = system: HSV-1; format: in vivo, Kunming mice; settings: n 15
[7] = system: Staphylococcus aureus; format: in vivo, ICR mice; settings: n = 10
[8] = system: Streptococcus pneumoniae; format: in vivo, ICR mice; settings: n = 10
[9] = system: Mycoplasma pneumoniae (ATCCFH15531); format: in vivo, BALB/C mice
[10] = system: Pseudomonas aeruginosa; format: in vivo, BAL B/C male mice; settings: 14 days

6S-5-methyltetrahydrofolate calcium
secretion of NO in macrophages [1]: promote the secretion of NO | expression of macrophages and inflammatory factors induced by LPS [2]: no significant effect | expression of iNOS in macrophages induced by LPS [3]: did not affect expression of iNOS; also recorded: almost no effect | Mean disappearance time: Cough [4]: 35.7 h | Mean disappearance time: Dizziness and fullness in head [4]: 28.5 h | Mean disappearance time: Dry and itchy throat [4]: 15.0 h | Mean disappearance time: Fatigue [4]: 14.1 h | Mean disappearance time: Headache [4]: 13.7 h | Mean disappearance time: Inappetence [4]: 13.0 h | Mean disappearance time: Intolerance of cold and cold limbs [4]: 10.0 h | Mean disappearance time: Low fever [4]: 10.0 h | Mean disappearance time: Muscular soreness [4]: 14.9 h | Mean disappearance time: Nasal stuffiness [4]: 23.0 h | Mean disappearance time: Running nose [4]: 20.6 h | Mean disappearance time: Sneezing [4]: 18.1 h | Mean disappearance time: Sore throat [4]: 29.4 h | Mean time: Basic rehabilitation [4]: 27.4 h | Mean time: Complete rehabilitation [4]: 32.9 h | disappearance time of symptoms: Dry and itchy throat [4]: 15 h | disappearance time of symptoms: Inappetence [4]: 13 h | disappearance time of symptoms: Intolerance of cold and cold limbs [4]: 10 h | disappearance time of symptoms: Low fever [4]: 10 h | time in which the patients' influenza almost all healed [4]: ≤ 2 days | condition of the administration group (body weight, body temperature, food intake, water intake, survival curves) [5]: greatly improved

Nc1nc2c(ncn2COCCO)c(=O)[nH]1 [Acyclovir, acyclovir]
Mortality [6]: 60% | Number of deaths, 48 h [6]: 0 | Number of deaths, D4 [6]: 4 | Number of deaths, D7 [6]: 5

CC1(C)S[C@@H]2[C@H](NC(=O)[C@H](N)c3ccc(O)cc3)C(=O)N2[C@H]1C(=O)O [Amoxicillin, amoxicillin]
Survival rate, Staphylococcus aureus [7]: 70** % | Survival rate, Streptococcus pneumoniae [8]: 50* %

NC(=O)c1ccc[n+]([C@@H]2O[C@H](COP(=O)([O-])O)[C@@H](O)[C@H]2O)c1 [NMN, nicotinamide mononucleotide]
expression of iNOS in macrophages induced by LPS [3]: did not affect expression of iNOS; also recorded: almost no effect

CC[C@H]1OC(=O)[C@H](C)[C@@H](O[C@H]2C[C@@](C)(OC)[C@@H](O)[C@H](C)O2)[C@H](C)[C@@H](O[C@@H]2O[C@H](C)C[C@H](N(C)C)[C@H]2O)[C@](C)(O)C[C@@H](C)CN(C)[C@H](C)[C@@H](O)[C@]1(C)O [azithromycin]
Histopathological examination of the lung tissue ([9]; 10 days): Mild interstitial pneumonia | Splenic index ([9]; mouse, in vivo): 4.515 ± 0.982 mg/g | Thymic index ([9]; mouse, in vivo): 3.818 ± 1.232 mg/g

O=C1O[C@H]([C@@H](O)CO)C(=O)C1=O [dehydroascorbic acid]
expression of iNOS in macrophages induced by LPS [3]: almost no effect

N[C@@H](CCC(=O)N[C@@H](CS)C(=O)NCC(=O)O)C(=O)O [glutathione, reference compound]
expression of iNOS in macrophages induced by LPS [3]: did not affect expression of iNOS; also recorded: almost no effect

C[C@@H](O)[C@H]1C(=O)N2C(C(=O)O)=C(S[C@@H]3CN[C@H](C(=O)N(C)C)C3)[C@H](C)[C@H]12 [meropenem]
survival of mice infected with the fatal dose of Pseudomonas aeruginosa [10]: 100%

penicillin
survival of mice infected with the fatal dose of Pseudomonas aeruginosa [10]: all the mice in the penicillin group died
